Legend:
Assay in all cases: Enzyme Assay and Determination of the Inhibition Constants
Conditions in all cases: pH 7.4; 22 °C
[1] = target: Coagulation factor X (Homo sapiens, UniProt P00742)
Protocol: (§1) Each enzyme was assayed with a set of different concentrations of each inhibitor. […] Ki(apparent) values were calculated from enzyme velocity curves using the software package BatchKi (BioKin Ltd, Madison, WI). These apparent inhibition constants were then converted to Ki values by assuming competitive inhibition and using the formula Ki = Ki(apparent)/(1 + S/Km).

[2] = target: Urokinase-type plasminogen activator (Homo sapiens, UniProt P00749)
Protocol: as §1

[3] = target: Tissue-type plasminogen activator (Homo sapiens, UniProt P00750)
Protocol: as §1

[4] = target: Tryptase beta-2 (Homo sapiens, UniProt P20231)
Protocol: as §1

[5] = target: Prothrombin (Homo sapiens, UniProt P00734)
Protocol: as §1

Chain of Tryptase beta-2 (P20231 as listed by the source): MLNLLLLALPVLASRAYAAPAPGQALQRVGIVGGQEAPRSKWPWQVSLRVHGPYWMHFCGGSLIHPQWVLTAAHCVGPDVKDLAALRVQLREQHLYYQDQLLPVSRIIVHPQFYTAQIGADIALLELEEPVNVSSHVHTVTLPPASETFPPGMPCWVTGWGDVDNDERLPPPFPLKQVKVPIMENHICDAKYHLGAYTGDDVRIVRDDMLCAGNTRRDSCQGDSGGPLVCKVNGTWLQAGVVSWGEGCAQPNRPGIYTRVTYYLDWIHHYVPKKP
Chain of Tissue-type plasminogen activator (P00750 whole entry): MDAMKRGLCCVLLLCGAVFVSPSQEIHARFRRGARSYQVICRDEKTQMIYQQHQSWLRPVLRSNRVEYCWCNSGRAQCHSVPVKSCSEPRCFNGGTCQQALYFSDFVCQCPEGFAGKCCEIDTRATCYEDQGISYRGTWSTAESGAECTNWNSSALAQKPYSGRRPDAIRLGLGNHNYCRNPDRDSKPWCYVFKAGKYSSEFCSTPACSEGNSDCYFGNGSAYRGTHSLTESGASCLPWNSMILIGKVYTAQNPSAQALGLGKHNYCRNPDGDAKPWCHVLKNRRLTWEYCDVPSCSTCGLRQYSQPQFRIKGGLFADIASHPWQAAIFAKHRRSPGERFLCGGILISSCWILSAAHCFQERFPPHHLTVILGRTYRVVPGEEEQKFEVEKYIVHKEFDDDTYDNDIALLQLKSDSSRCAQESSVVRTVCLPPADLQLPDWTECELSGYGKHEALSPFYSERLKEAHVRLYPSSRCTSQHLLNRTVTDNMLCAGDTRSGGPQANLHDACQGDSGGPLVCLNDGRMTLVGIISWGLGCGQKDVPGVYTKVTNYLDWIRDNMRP
Chain of Coagulation factor X (P00742 41-179 limits assumed): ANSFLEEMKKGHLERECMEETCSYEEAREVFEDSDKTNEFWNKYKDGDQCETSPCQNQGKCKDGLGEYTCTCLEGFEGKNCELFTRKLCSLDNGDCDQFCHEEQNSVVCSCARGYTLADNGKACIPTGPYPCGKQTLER
Chain of Coagulation factor X (P00742 235-488 limits assumed): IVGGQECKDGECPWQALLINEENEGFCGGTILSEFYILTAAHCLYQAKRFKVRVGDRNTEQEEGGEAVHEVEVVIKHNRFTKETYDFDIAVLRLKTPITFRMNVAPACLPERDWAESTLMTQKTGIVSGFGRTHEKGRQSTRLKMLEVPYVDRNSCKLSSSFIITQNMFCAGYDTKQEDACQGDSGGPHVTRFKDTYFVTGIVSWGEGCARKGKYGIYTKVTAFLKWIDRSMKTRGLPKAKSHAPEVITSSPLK

Compound	Ki [1] [µM]	Ki [2] [µM]	Ki [3] [µM]	Ki [4] [µM]	Ki [5] [µM]
N=C(N)c1ccccc1 [Benzamidine]	110				
N=C(N)c1cc2ccccc2s1 [Benzo[b]thiophene-2-carboxamidine]	21	2.3	15	9.9	58
N=C(N)c1cc2c(I)cccc2s1 [CA-01]	30		16.8	1.5	
N=C(N)c1cc2cccnc2s1 [[amino(thieno[2,3-b]pyridin-2-yl)methylidene]azanium]	360		1800	34	1600
